From patent US7078057B2, “Process for producing nanometer particles by fluid bed spray-drying” (priority 1999, dated 2006)

Test: Particle size by laser diffraction using photo correlation spectroscopy (Nicomp C370)
Type: physicochemical
Conditions: ganaxolone particles in spray-dried mixture with lactose (Example I)
Protocol: For purposes of the present invention, particle size in the mixtures is determined by a laser diffraction technique using photo correlation spectroscopy (Nicomp C370). The results are reported in terms of volume-weighted mean diameter. Volume-weighted mean diameter is defined as follows: (Σnd^4)/(Σnd^3) where n=the number of particles in a size interval characterized by a diameter “d”. Remington's Pharmaceutical Sciences, 18th edition, Mack Publishing Company, Easton, Pa. (1990).
Approximately 100 g of ganaxolone was dissolved in 5 kg of ethanol with slight warming to 30° C. The solution was sprayed into 1 kg of spray-dried lactose NF (Fast Flo #316) in a Vector FL-M-1 fluid bed system equipped with a 6″ Wurster column. The spray rate was 34–41 mL/min using one gun. The static inlet pressure was 2.5–8 bar (250–800 kPa) affording an air flow of 25–45 cfm. The inlet temperature was 85–90° C. and the product temperature was 27–48° C. The resulting ganaxolone powder mixture was free-flowing and contained 63 mg ganaxolone per g of powder. The ganaxolone particle size in the mixture was determined by a laser diffraction technique using photo correlation spectroscopy (Nicomp C370).

CC(=O)[C@H]1CC[C@H]2[C@@H]3CC[C@H]4C[C@](C)(O)CC[C@]4(C)[C@H]3CC[C@]12C [ganaxolone, 3α-hydroxy-3β-methyl-5α-pregnan-20-one] gave a volume-weighted mean diameter of 660 nm.
